{
  "source": "patent US20150306096A1",
  "about": "“8'-HYDROXY-DIHYDROERGOTAMINE COMPOUNDS AND COMPOSITIONS” (MAP Pharmaceuticals, Inc., priority 2012, published 2015)",
  "key": {"[1]": {"target": "T1, human Serotonin 5-HT1B receptor (Homo sapiens, UniProt P28222)", "T1 construct": "purchased Euroscreen", "T1 sequence (P28222 whole entry)": "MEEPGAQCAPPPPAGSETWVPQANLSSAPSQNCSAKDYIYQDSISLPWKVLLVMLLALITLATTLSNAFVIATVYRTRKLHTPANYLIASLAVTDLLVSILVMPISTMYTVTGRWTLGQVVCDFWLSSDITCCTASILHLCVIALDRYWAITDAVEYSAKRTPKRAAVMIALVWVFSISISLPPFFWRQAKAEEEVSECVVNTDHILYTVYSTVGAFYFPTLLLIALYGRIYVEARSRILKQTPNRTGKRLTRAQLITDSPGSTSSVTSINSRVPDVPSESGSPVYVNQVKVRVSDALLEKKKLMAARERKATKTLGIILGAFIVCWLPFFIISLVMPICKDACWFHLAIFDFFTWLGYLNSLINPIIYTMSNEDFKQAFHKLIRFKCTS", "test": "GTPγS functional assay", "format": "biochemical", "settings": "read-out: Functional activity (agonist)", "protocol": "(§1) Functional profiling of agonist and antagonist activities of 8′-OH DHE on human Adrenergic α1D, Dopamine D2L, and Serotonin 5-HT1B, 5-HT1D, 5-HT1F, 5-HT3, 5-HT4e and 5-HT5A receptors (compared against the parent (DHE) molecule) was carried out as follows.\n(§2) The SPA 35S-GTPγS tests were conducted with Euroscreen membrane preparations […]. The HTRF assays were conducted with recombinant cell lines. The receptor accession numbers, cellular background and reference compounds are as reported below in Table 10.\n(§3) (3) 8′-OH DHE was tested for agonist and antagonist activity at the human Serotonin 5-HT1B and Serotonin 5-HT1D receptors using GTPγS assay (in triplicate) at the following nanomolar concentrations: […]\n(§4) The assay procedure was carried out as follows. […] The plates were then centrifuged for 10 minutes at 2,000 rpm and counted for 1 min/well with a Perkin Elmer TopCount reader.\n(§5) Agonist activity of the test compounds was expressed as a percentage of the activity of the reference agonist at its EC100 concentration. Antagonist activity of the test compounds was expressed as a percentage of the inhibition of the reference agonist activity at its EC80 concentration. Dose-response data from the test compounds were analyzed with XLfit (IDBS) software using nonlinear regression applied to a sigmoidal dose-response model and the following equation: […]"}, "[2]": {"target": "T2, human Serotonin 5-HT1D receptor (Homo sapiens, UniProt P28221)", "T2 construct": "purchased Euroscreen", "T2 sequence (P28221 whole entry)": "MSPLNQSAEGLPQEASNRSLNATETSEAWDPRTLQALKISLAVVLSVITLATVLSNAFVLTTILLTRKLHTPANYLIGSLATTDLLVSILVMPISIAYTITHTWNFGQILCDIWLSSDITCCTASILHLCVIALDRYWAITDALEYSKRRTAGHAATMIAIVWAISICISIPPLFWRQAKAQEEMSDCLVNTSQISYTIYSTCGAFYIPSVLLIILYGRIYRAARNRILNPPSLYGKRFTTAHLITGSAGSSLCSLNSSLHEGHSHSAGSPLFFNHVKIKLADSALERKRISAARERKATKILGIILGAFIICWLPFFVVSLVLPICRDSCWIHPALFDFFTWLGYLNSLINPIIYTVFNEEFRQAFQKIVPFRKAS", "test": "GTPγS functional assay", "format": "biochemical", "settings": "read-out: Functional activity (agonist)", "protocol": "as §1, §2, §3, §4, §5"}, "Calcitonin (CGRP)": {"target": "T3, Calcitonin (CGRP) (Homo sapiens, UniProt O60894+Q16602)", "T3 construct": "expressed in transfected cells; host or cells: CHO-K1 with apoaequorin (CHO-AEQ)", "T3 sequence (Q16602 23-461)": "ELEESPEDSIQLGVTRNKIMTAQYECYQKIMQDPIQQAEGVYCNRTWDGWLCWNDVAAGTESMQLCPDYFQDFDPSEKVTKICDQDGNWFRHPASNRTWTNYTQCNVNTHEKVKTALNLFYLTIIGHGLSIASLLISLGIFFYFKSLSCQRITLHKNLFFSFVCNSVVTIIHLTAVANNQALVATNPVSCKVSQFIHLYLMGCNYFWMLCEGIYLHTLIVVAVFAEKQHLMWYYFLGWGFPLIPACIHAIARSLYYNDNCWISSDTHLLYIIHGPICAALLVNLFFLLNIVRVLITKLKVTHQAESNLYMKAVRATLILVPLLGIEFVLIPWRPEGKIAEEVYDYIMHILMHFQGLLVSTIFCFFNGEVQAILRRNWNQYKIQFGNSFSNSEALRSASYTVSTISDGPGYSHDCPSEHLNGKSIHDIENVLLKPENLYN", "T3 sequence (O60894 27-148 partner)": "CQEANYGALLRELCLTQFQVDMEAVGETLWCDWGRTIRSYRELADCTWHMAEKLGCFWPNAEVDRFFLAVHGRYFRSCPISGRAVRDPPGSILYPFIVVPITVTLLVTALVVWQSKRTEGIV", "test": "Aequorin assay", "format": "cell-based", "settings": "CGRP receptor", "protocol": "Additional receptor agonist/agonist activity assessments were performed using the 8′-OH DHE test compound. Table 12 contains a summary of the cell lines (CHO-K1/HEK293 transfected with relevant human receptor) and the assays performed to detect any agonist or antagonist activity.\nAequorin assays were conducted to monitor activity for 8′-OH DHE against the receptors indicated in Table 12 above (except for mGlu3 and mGlu5). CHO-K1 cells co-expressing mitochondrial apoaequorin and the recombinant human receptor of interest were grown to mid-log phase in culture media without antibiotics and then detached with PBS-EDTA, centrifuged and resuspended in assay buffer (DMEMHAM's F12 with HEPES, without phenol red+0.1% BSA, protease free) at a concentration of 1×10^6 cell/mL. Cells were incubated at RT for at least 4 hours with coelenterazine h. […]\n50 μL of the cell suspension was mixed with 50 μL of test or reference agonist in a 96-well plate. The resulting emission of light was recorded using Hamamatsu Functional Drug Screening System 6000 (FDSS 6000) luminometer. […] The resulting emission of light was recorded using the FDSS 6000 luminometer. To standardize the emission of recorded light (and determine of the ‘100% signal’) across plates and across different experiments, some wells contained 100 μM digitonin or a saturating concentration of ATP (20 μM)."}},
  "data": [
    {"smiles": "CN1C[C@H](C(=O)N[C@]2(C)O[C@@]3(O)[C@@H]4CCC(O)N4C(=O)[C@H](Cc4ccccc4)N3C2=O)C[C@@H]2c3cccc4[nH]cc(c34)C[C@H]21", "note": "(stereo partly drawn) [8′-OH DHE, 8′-Hydroxy-Dihydroergotamine]", "values": [
      {"measurement": "EC50", "setting": "[1]", "result": 0.73, "unit": "nM"},
      {"measurement": "EC50", "setting": "[2]", "result": 0.49, "unit": "nM"},
      {"measurement": "Activity (Agonism: EC50; Antagonism: IC50)", "setting": "Calcitonin (CGRP)", "result": "Inactive"}
    ]}
  ]
}
